From patent publication US6576811B1, “Transgenic rat with human normal type c-Ha-ras gene” (National Cancer Center Research Institute, priority 1998, dated 2003) come the findings set out here.

For data set [1], the system named is endogenous Ha-ras gene (rat). As to the kind of experiment: Mutation analysis (PCR-SSCP) of the endogenous Ha-ras gene in carcinogen-induced tumors. From the text: Single-stranded DNA confirmation polymorphism (SSCP) analysis is able to be performed according to the followings; T. Sekiya. Protein, Nucleic Acid, Enzyme, vol. 41, No. 5, 539, 1996.
Possible mutations in exons 1 to 4 of the human Ha-ras proto-oncogene and exons 1 and 2 of the endogenous gene were examined by PCR-SSCP analysis. Using human or rat specific primers, only two bands appeared on the gals. With common primers (cHras21F and cHras21R) for Ha-ras exon 2 of both man and rats, four bands were detected. Human or rat specific bands were identified by signals from normal DNA of the transgenic and non-transgenic rats. DNA from T24 having a mutation in human Ha-ras of codon 12, GGC to GTC and that from pSK2 having a mutation in the codon 61, CAG to CTG, gave clearly mobility shifted bands in the assays (FIG. 4). However, a GGC to GAC mutation of the transgene enriched by PCR after RFLP analysis as described below, which was frequently observed in tumors induced by MNU in human Ha-ras proto-oncogene transgenic mice, could not be detected by SSCP -PCR analysis. In 44 tumors from Hras128 transgenic rats treated with MNU, mutations were not detected in exons 1 to 4 of the introduced human and endogenous c-Ha-ras genes under any of four SSCP conditions (at 4 or 20° C., with or without 5% glycerol) (Table 1). In contrast, a relatively high frequency (6 of 21 tumors of non-transgenic rats (28.6%) of GGA to GAA mutations in codon 12 of the endogenous Ha-ras gene was detected in mammary carcinomas of non-transgenic using PCR-SSCP analysis followed by direct sequencing (Table 1).

In data set [2] the test system is human c-Ha-ras proto-oncogene (transgene). Nature of the data set: Mutation analysis (RFLP, PCR-SSCP) of the transgene in carcinogen-induced tumors. From the text:
Single-stranded DNA confirmation polymorphism (SSCP) analysis is able to be performed according to the followings; T. Sekiya. Protein, Nucleic Acid, Enzyme, vol.
Possible mutations in exons 1 to 4 of the human Ha-ras proto-oncogene and exons 1 and 2 of the endogenous gene were examined by PCR-SSCP analysis.
RFLP analysis is able to perform according to the followings; Nagase, et al., Protein, Nucleic Acid, Enzyme, vol.

Data set [3] deals with wild type rats. As to the kind of experiment: BBN-induced urinary bladder tumors in wild type rats. The class given is in vivo, rat. To be noted: Wild female. As for the experimental part:
(§1) In the same manner as in Example 2, 0.05% N-butyl-N-(4-hydroxybutyl)nitrosoamine (BBN) was administered mixed with drinking water to Hras128 rats and the wild type rats for 10 weeks, to induce bladder tumors. The incidences of bladder tumors (papillomas and carcinomas combined) are shown in Table 11, the mutation of the human c-Ha-ras proto-oncogene codons 12 and 61 and endogeneous rat H-ras shown in Table 12.

Data set [4] concerns Hras128 rats. As to the kind of experiment: BBN-induced urinary bladder tumors in Hras128 rats. The class given is in vivo, rat. As for the experimental part: as §1
Data set [5] deals with wild type rats (non Tg rats). Nature of the data set: DMBA-induced mammary carcinomas in wild type rats. The class given is in vivo, rat.
From the text: (§4) Well established mammary carcinogens, such as 7,14-dimethylbenz[a]anthracene (DMBA) and 2-amino-1-methyl-6-phenylimidazo[4,5-]pyridlne (PhIP) were given to the Hras128 rats in the same manner as in previous reports.
(§5) The number of tumor indicates number of lesions per rat and the sizes of the tumors indicates their diameter (mm).
The subject of data set [6] is Hras128 rats. Nature of the data set: DMBA-induced mammary carcinomas in Hras128 rats.
From the text: as §4, §5
The subject of data set [7] is wild rats. As to the kind of experiment: ENU-induced transplacental carcinogenesis in wild rats. The class given is in vivo, rat. Here is the method:
(§2) The effects of transplacental administration of carcinogenic substances were examined in offsprings of females and males of Hras128 rats and wild rats.
(§3) Transplacental administration of ethylnitrosourea (ENU) was performed and incidence of tumors in many organs of the bearing rats are shown in Table 14.

Data set [8] concerns Hras128 rats. As to the kind of experiment: ENU-induced transplacental carcinogenesis in Hras128 (Tg 128) rats. Format: in vivo, rat. The conditions noted are these: for No. of tumor bearing rat/total No. of rat / Tumor incidence, CNS / Tumor incidence, kidney / Tumor incidence, mammary gland / Tumor incidence, papilloma / Tumor incidence, spleen: transplacental ENU. As for the experimental part:
as §2, §3

Data set [9] deals with Hras128 rats. As to the kind of experiment: PhIP-induced mammary carcinomas in Hras128 rats. Format: in vivo, rat.
From the text: as §4
The test system of data set [10] is wild type rats (non Tg rats). As to the kind of experiment: PhIP-induced mammary carcinomas in wild type rats. The class given is in vivo, rat. To be noted: 4 rats.
From the text: as §4
The subject of data set [11] is Hras128 rats. Nature of the data set: Effects of d-limonene on MNU-induced mammary carcinogenesis in Hras128 transgenic rats. Format: in vivo, rat. The conditions noted are these: 5% d-limonene, 9 rats.
Where [12] appears, read: BBN-induced bladder tumors, Hras128, 27 tumors examined.
[13] abbreviates: BBN-induced bladder tumors, Wild, 17 tumors examined.
[14] abbreviates: bladder papillomas and carcinomas combined, 15 rats.
Setting [15] is: Hras128 female, bladder papillomas and carcinomas combined, 20 rats.
[16] abbreviates: DMBA-induced mammary carcinomas, Hras128, 20 tumors examined.
Setting [17] is: DMBA-induced mammary carcinomas, Wild, 7 tumors examined.
The mark [18] stands for this setting: DMBA-induced mammary carcinomas, Hras128, 20 tumors examined, RFLP.
[19] abbreviates: Hras128, mammary carcinomas, 14 rats.
[20] abbreviates: PhIP-induced mammary carcinomas, row printed 'Wild' (Hras128 per text), 20 tumors examined.
Where [21] appears, read: Hras128, mammary carcinomas, 6 rats.
The mark [22] stands for this setting: PhIP-induced mammary carcinomas, row printed 'Wild' (Hras128 per text), 20 tumors examined, RFLP.

Values joined by “and” are separate entries in the source; they are usually repeats but may differ in a detail not shown here. Equal values may be shown once. Marks after values point to notes of the source that are not given here.

For the molecule `CCCCN(CCCCO)N=O` [BBN, N-butyl-N-(4-hydroxybutyl)nitrosoamine], the “Endogenous (rat) exon 1 mutations, number of tumors” value in data set [1] (setting [12]) is 0; in data set [1] (BBN-induced bladder tumors, Wild, 17 tumors examined, GGA to GAA), 1/17 and 1. The “Endogenous (rat) exon 2 mutations, number of tumors” value (from here on “Endogenous (rat) exon 2 mutations”) in [1] (setting [12]) and in [1] (setting [13]) was 0 each time. For the same molecule, in data set [1] (setting [13]), the “Endogenous (rat) exon 1 mutations, %” value was 5.9%. Moreover, the “Transgene codon 12 mutations, %” value in data set [2] (setting [12]) came to 7.4%. In addition, the “Transgene codon 61 mutations, number of tumors” value in data set [2] (setting [12]) came out at 0. Further, the “Transgene mutations total, %” value in data set [2] (setting [12]) was determined as 7.4%. Further, in [2] (setting [12]), the “Transgene mutations total, number of tumors” value is 2. Besides, the “Transgene codon 12 mutations, number of tumors” value in data set [2] (BBN-induced bladder tumors, Hras128, 27 tumors examined, GGC to GAC) was 2/27 and 2. Further, the “Incidence of carcinomas (fraction)” value in data set [3] (bladder) is on record as 4/13; in data set [4] (Hras128 female, bladder) it was 11/14. Besides, the “No. of tumor-bearing rats” value came out at 15 in data set [3] (bladder papillomas and carcinomas combined, 0.05% BBN in drinking water 10 weeks, 15 rats); 19 in data set [4] (Hras128 female, bladder papillomas and carcinomas combined, 0.05% BBN in drinking water 10 weeks, 20 rats). For the same molecule, the “No. of tumor-bearing rats (%)” value in [3] (setting [14]) came out at 100%; in [4] (setting [15]) it was 95%. For the same molecule, the figures for the No. of tumors/rat in data set [3] (setting [14]) and in data set [4] (setting [15]) were 7.1 ± 5.2 and 13.2 ± 6.8^b, respectively. In addition, the “Incidence of carcinomas (figure in parentheses)” value amounted to 30.8 in data set [3] (bladder, percent sign not given) and 35.3 in data set [4] (Hras128 female, bladder, percent sign not given). Moreover, in [4] (rat, in vivo), the “Sensitivity of the Hras128 rat to BBN carcinogenesis in the bladder” value was “slightly elevated sensitivity”.

As for `Cc1c2ccccc2c(C)c2c1ccc1ccccc12` [DMBA], in [1] (setting [16]), the “Endogenous (rat) exon 1 mutations, number of tumors” value came out at 0 and the “Endogenous (rat) exon 2 mutations” value was 0. Moreover, in data set [1] (setting [17]), the “Endogenous (rat) exon 1 mutations, number of tumors” value was 0 and the “Endogenous (rat) exon 2 mutations” value came out at 0. In addition, in data set [2] (setting [16]), the “Transgene codon 12 mutations, %” value is on record as 30%; the “Transgene codon 61 mutations, %” value came to 35%; the “Transgene mutations total, %” value stood at 60%; the “Transgene mutations total, number of tumors” value amounted to 12. Further, in [2] (setting [18]), the “Transgene codon 12 mutations, number of tumors” value is 6/20 and 6; the “Transgene codon 61 mutations, number of tumors” value is 7/20 and 7. For the same molecule, the “Tumor size (diameter)” value in [5] came to 13.4 ± 8.20 mm. Also, in data set [5] (12 rats), the “No. of tumor-bearing rats” value was 4, the “No. of tumor-bearing rats (%)” value is on record as 33.3% and the No. of tumors/rat is given as 0.83 ± 1.75. Moreover, in data set [6] (Hras128, mammary carcinomas), the “Tumor size (diameter)” value came to 12.6 ± 9.22 mm. Further, in data set [6] (setting [19]), the “No. of tumor-bearing rats” value turned out to be 13, the “No. of tumor-bearing rats (%)” value amounted to 92.9% and the No. of tumors/rat is 9.39 ± 9.79^b. Moreover, in [6] (mammary carcinogenesis), the “Sensitivity of the Hras128 rat to DMBA” value is “very sensitive”.

Regarding `CCN(N=O)C(N)=O` [ENU, ethylnitrosourea], in data set [7] (Wild 128 Female offspring), the “No. of tumor bearing rat/total No. of rat” value is 0/7; the “Tumor incidence, CNS” value is 0; the “Tumor incidence, kidney” value is recorded as 0; the “Tumor incidence, mammary gland” value was 0. Besides, in [7] (Wild 128 Female offspring), the “Tumor incidence, papilloma” value turned out to be 0 and the “Tumor incidence, spleen” value came to 0. Moreover, in data set [7] (Wild 128 Male offspring), the “No. of tumor bearing rat/total No. of rat” value is given as 2/6; the “Tumor incidence, CNS” value was 2/6; the “Tumor incidence, kidney” value was determined as 0; the “Tumor incidence, mammary gland” value is given as 0. Further, in data set [7] (Wild 128 Male offspring), the “Tumor incidence, papilloma” value worked out at 0 and the “Tumor incidence, spleen” value worked out at 0. Further, in [8] (Tg 128 Female offspring), the “No. of tumor bearing rat/total No. of rat” value is reported as 6/9; the “Tumor incidence, CNS” value is recorded as 3/9; the “Tumor incidence, kidney” value is given as 2/9; the “Tumor incidence, mammary gland” value was 5/9. Besides, in data set [8] (Tg 128 Female offspring), the “Tumor incidence, papilloma” value stood at 0 and the “Tumor incidence, spleen” value is recorded as 2/9. In addition, in data set [8] (Tg 128 Male offspring), the “No. of tumor bearing rat/total No. of rat” value is 8/15; the “Tumor incidence, CNS” value was 6/15; the “Tumor incidence, kidney” value was 6/15; the “Tumor incidence, mammary gland” value is listed as 4/15. Further, in data set [8] (Tg 128 Male offspring), the “Tumor incidence, papilloma” value is 3/15 and the “Tumor incidence, spleen” value is on record as 0/15. In data set [8] (transgenic rat, within a short period), the “Occurrence of tumors in the central nervous system, kidney, skin, etc. after trans-placental administration” value is reported as “significantly increases”.

For the molecule `Cn1c(N)nc2ncc(-c3ccccc3)cc21` [PhIP], in data set [1] (setting [20]), the “Endogenous (rat) exon 1 mutations, number of tumors” value worked out at 0 and the “Endogenous (rat) exon 2 mutations” value was determined as 0. The Tumor size in data set [9] (Hras128, mammary carcinomas) is recorded as 9.23 ± 6.21 mm. In addition, in [9] (setting [21]), the “No. of tumor-bearing rats” value came out at 6, the “No. of tumor-bearing rats (%)” value is recorded as 100% and the No. of tumors/rat was 9.67 ± 4.76^b. For the same molecule, the “Sensitivity of the Hras128 rat to PhIP” value in data set [9] (mammary carcinogenesis) is “highly sensitive”. For the same molecule, in data set [2] (setting [20]), the “Transgene codon 12 mutations, %” value is 30%; the “Transgene codon 61 mutations, %” value amounted to 23.1%; the “Transgene mutations total, number of tumors” value is on record as 8. Further, in data set [2] (setting [22]), the “Transgene codon 12 mutations, number of tumors” value was 6/20 and 6; the “Transgene codon 61 mutations, number of tumors” value was 3/20 and 3. In addition, the “Transgene mutations total, figure in parentheses” value in [2] (PhIP-induced mammary carcinomas, row printed 'Wild' (Hras128 per text), percent sign not given) is recorded as 61.5. In addition, in data set [10], the “No. of tumor-bearing rats” value is recorded as 0(0), the “No. of tumor-bearing rats (%)” value was 0(0) % and the No. of tumors/rat is recorded as 0.

In the case of `C=C(C)[C@H]1CC=C(C)CC1` [d-Limonene, d-limonene], the “Average size of tumors (mm)” value in [11] (basal diet control 10.7 ± 7.34, P < 0.01) is 8.23 ± 4.88 ^a mm. Moreover, in data set [11] (basal diet control 26.4 ± 8.52), the No. of tumors/rat is 19.4 ± 6.71. The “Average size of tumors (mm^3)” value in data set [11] (basal diet control 637.7 ± 1669, P < 0.01) was 269.5 ± 735.5 ^a mm^3.
